These results are taken from patent US20240376111A1, “COMPOSITIONS AND METHODS OF USING THE SAME FOR TREATMENT OF NEURODEGENERATIVE AND MITOCHONDRIAL DISEASE” (Mitokinin, Inc., priority 2021, published 2024).

Values joined by “and” are separate entries in the source; they are usually repeats but may differ in a detail not shown here. Equal entries are not always repeated. Where two headings read alike, the source gives them in different places.

The term EC50 denotes the concentration giving half of the maximal effect.

Data set [1] has as its system HeLa cells expressing mt-Keima and YFP-Parkin (HeLa MKYP). Nature of the data set: Human mt-Keima mitophagy assay. In kind it is cell-based. The note with it: Homo sapiens. Here is the method:
Briefly, HeLa cells expressing mt-Keima and YFP-Parkin (HeLa MKYP) were plated at 10,000 cells/well in 96 well plates along with compounds at various concentrations. Following 16 hrs of incubation, cells were treated with 1 uM FCCP/oligomycin for 6 hours, then analyzed via FACS for the presence of mitochondria in lysosomes (as determined by an emissions spectrum shift from the pH-sensitive mt-Keima tag).

The next data set concerns SKOV3 cells. As to the kind of experiment: In vitro mitosafety (glucose/galactose) assay. The note with it: highest mito-safe dose = highest concentration at which gal/glc>0.80 (IC20) in SKOV3 cells, divided by mt-Keima EC50.
The mark [2] stands for this setting: HeLa MKYP cells, 16 hrs with compound, then 1 uM FCCP/oligomycin for 6 hours, FACS, read-out: EC50 in HeLa mt-Keima Mitophagy Assay.

Description for SKOV3 cells: Briefly, SKOV3 cells (ATCC HTB-77) were plated in DMEM (Corning 10-013-CV) medium containing 25 mM glucose or DMEM with no glucose (Gibco 11966-025) supplemented with 10 mM galactose at 9,000 cells/well in 96 well plates (Corning costar 3610). 24 hrs later, compounds, in DMSO, were added at various concentrations to a final 0.1% DMSO for all wells. […] After a 15 minute incubation cellular ATP levels were read out using a Promega GloMax® DiscoverMicroplate Reader.
The ratio of relative CellTiter-Glo values from cells grown in galactose to cells grown in glucose was determined (gal/glc ratio). The gal/glc ratio vs concentration is then graphed, and non-linear regression is used to find the highest concentration of MTK compound at which gal/glc>0.80 (the “highest mito-safe dose”, or IC20).

Turning to `CC(C)(C#N)CO[C@H]1COc2ccccc2[C@@H]1Nc1ncnc2[nH]c(C(F)(F)F)cc12` [EP-0043230, 2,2-dimethyl-3-[(3R,4S)-4-[[6-(trifluoromethyl)-7H-pyrrolo[2,3-d]pyrimidin-4-yl]amino]chroman-3-yl]oxy-propanenitrile], in data set [1] (setting [2]), the concentration giving a half-maximal response (EC50) was found to be 417 nM. Moreover, the “Mito-Safety Index (highest mito-safe dose/mt-Keima EC50)” value (shortened to “Mito-Safety Index”) with SKOV3 cells worked out at 43.73.

As for `CC(C)(O)CO[C@H]1COc2ccccc2[C@@H]1Nc1ncnc2[nH]c(C(F)(F)F)cc12` [EP-0042979, 2-methyl-1-[(3R,4S)-4-[[6-(trifluoromethyl)-7H-pyrrolo[2,3-d]pyrimidin-4-yl]amino]chroman-3-yl]oxy-propan-2-ol], the EC50 in data set [1] (setting [2]) was found to be 468 nM. Further, in the data set on SKOV3 cells, the “Mito-Safety Index” value is given as 53.45.

Regarding `CC(C)CO[C@H]1COc2ccccc2[C@@H]1Nc1ncnc2[nH]c(C(F)(F)F)cc12` [EP-0043813, N-((3R,4S)-3-isobutoxychroman-4-yl)-6-(trifluoromethyl)-7H-pyrrolo[2,3-d]pyrimidin-4-amine], the EC50 in data set [1] (setting [2]) was 170 nM. Moreover, the “Mito-Safety Index” value with SKOV3 cells is 147.1.

For the compound `COCCCO[C@H]1COc2ccccc2[C@@H]1Nc1ncnc2[nH]c(C3CC3)cc12` [EP-0042529, 4,6-cyclopropyl-N-[(3R,4S)-3-(3-methoxypropoxy)chroman-4-yl]-7H-pyrrolo[2,3-d]pyrimidin-4-amine], the EC50 in data set [1] (setting [2]) amounted to 95 nM. Besides, the “Mito-Safety Index” value in the data set with SKOV3 cells amounted to 80.20.

As to `COCC[C@@H]1COc2ccccc2[C@H]1Nc1ncnc2[nH]c(C(F)(F)F)cc12` (single isomer, unassigned) [EP-0041398, N-[trans-3-(2-methoxyethyl)chroman-4-yl]-6-(trifluoromethyl)-7H-pyrrolo[2,3-d]pyrimidin-4-amine], in data set [1] (setting [2]), the EC50 came to 356 nM. In addition, in the data set on SKOV3 cells, the “Mito-Safety Index” value is listed as 43.54.

In the case of `CC(C)(C#N)CCC1COc2ccccc2C1Nc1ncnc2[nH]c(C3CC3)cc12` (single isomer, unassigned) [EP-0042850, 4-[trans-4-[(6-cyclopropyl-7H-pyrrolo[2,3-d]pyrimidin-4-yl)amino]chroman-3-yl]-2,2-dimethyl-butanenitrile], in data set [1] (setting [2]), the EC50 is 90 nM. The “Mito-Safety Index” value in the data set with SKOV3 cells is reported as 70.99.

For `COCCCC1COc2ccccc2C1Nc1ncnc2[nH]c(C(F)(F)F)cc12` (single isomer, unassigned) [EP-0041483, N-[3-(3-methoxypropyl)chroman-4-yl]-6-(trifluoromethyl)-7H-pyrrolo[2,3-d]pyrimidin-4-amine], the EC50 in data set [1] (setting [2]) stood at 70 nM. Moreover, the “Mito-Safety Index” value with SKOV3 cells turned out to be 48.05.

For `COC(C)(C)CO[C@H]1COc2ccccc2[C@@H]1Nc1ncnc2[nH]c(C(F)(F)F)cc12` [EP-0042655, N-[(3R,4S)-3-(2-methoxy-2-methyl-propoxy)chroman-4-yl]-6-(trifluoromethyl)-7H-pyrrolo[2,3-d]pyrimidin-4-amine], the EC50 in data set [1] (setting [2]) was found to be 119 nM. Also, the “Mito-Safety Index” value in the data set on SKOV3 cells is 38.50.

As for `COCCO[C@H]1COc2cc(F)ccc2[C@@H]1Nc1ncnc2[nH]c(C(F)(F)F)cc12` [EP-0042288, N-[(3R,4S)-7-fluoro-3-(2-methoxyethoxy)chroman-4-yl]-6-(trifluoromethyl)-7H-pyrrolo[2,3-d]pyrimidin-4-amine], the EC50 in data set [1] (setting [2]) turned out to be 397 nM. Moreover, the “Mito-Safety Index” value with SKOV3 cells was found to be 40.57.

On to `CC(C)CO[C@H]1COc2ccccc2[C@@H]1Nc1nccc2[nH]c(C(F)(F)F)cc12` [EP-0043866], for which the concentration giving a half-maximal response (EC50) in data set [1] (setting [2]) was 340 nM. Also, in the data set with SKOV3 cells, the “Mito-Safety Index” value was 32.6.

Regarding `CC(C)(C#N)CO[C@@H]1COc2ccccc2[C@H]1Nc1ncnc2[nH]c(C3CC3)cc12` (stereo in doubt) [EP-0042976, 3-[(3S,4R)-4-[(6-cyclopropyl-7H-pyrrolo[2,3-d]pyrimidin-4-yl)amino]chroman-3-yl]oxy-2,2-dimethyl-propanenitrile], the EC50 in data set [1] (setting [2]) came out at 53 nM. Also, the “Mito-Safety Index” value with SKOV3 cells is 302.16.

Consider `COCCO[C@H]1COc2cc(F)ccc2[C@@H]1Nc1ncnc2[nH]c(C3CC3)cc12` [EP-0042287, 6-cyclopropyl-N-[(3R,4S)-7-fluoro-3-(2-methoxyethoxy)chroman-4-yl]-7H-pyrrolo[2,3-d]pyrimidin-4-amine], for which the EC50 in data set [1] (setting [2]) is 180 nM. In addition, in the data set on SKOV3 cells, the “Mito-Safety Index” value is 38.56.

Regarding `CC(C)(C#N)CC[C@@H]1COc2ccccc2[C@H]1Nc1ncnc2[nH]c(C3CC3)cc12` (relative stereo) [EP-0042291, 4-[trans-4-[(6-cyclopropyl-7H-pyrrolo[2,3-d]pyrimidin-4-yl)amino]chroman-3-yl]-2,2-dimethyl-butanenitrile], the EC50 in data set [1] (setting [2]) was 78 nM. In addition, in the data set on SKOV3 cells, the “Mito-Safety Index” value is reported as 64.67.

Turning to `CC(C)(O)CO[C@H]1COc2ccccc2[C@@H]1Nc1ncnc2[nH]c(C3CC3)cc12` [EP-0042541, 1-[(3R,4S)-4-[(6-cyclopropyl-7H-pyrrolo[2,3-d]pyrimidin-4-yl)amino]chroman-3-yl]oxy-2-methyl-propan-2-ol], the EC50 in data set [1] (setting [2]) amounted to 123 nM. Moreover, the “Mito-Safety Index” value with SKOV3 cells was 50.82.

For `Fc1ccc2c(c1)OC[C@H](OCC1CC1)[C@H]2Nc1ncnc2[nH]c(C(F)(F)F)cc12` [EP-0043819, N-((3R,4S)-3-(cyclopropylmethoxy)-7-fluorochroman-4-yl)-6-(trifluoromethyl)-7H-pyrrolo[2,3-d]pyrimidin-4-amine], in data set [1] (setting [2]), the EC50 worked out at 680 nM. The “Mito-Safety Index” value in the data set with SKOV3 cells stood at 36.7.

For the compound `FC(F)(F)c1cc2c(N[C@H]3CC4(CCCC4)Oc4ccccc43)ncnc2[nH]1` (single isomer, unassigned) [EP-0041356, N-spiro[chromane-2,1′-cyclopentane]-4-yl-6-(trifluoromethyl)-7H-pyrrolo[2,3-d]pyrimidin-4-amine], the EC50 in data set [1] (setting [2]) worked out at 414 nM. Further, the “Mito-Safety Index” value with SKOV3 cells was 60.24.

On to `CCO[C@H]1COc2ccccc2[C@@H]1Nc1ncnc2[nH]c(C(F)(F)F)cc12` [EP-0043811, N-((3R,4S)-3-ethoxychroman-4-yl)-6-(trifluoromethyl)-7H-pyrrolo[2,3-d]pyrimidin-4-amine], for which the EC50 in data set [1] (setting [2]) was 930 nM. In addition, the “Mito-Safety Index” value in the data set with SKOV3 cells is 26.9.

Take `COCC[C@H]1COc2ccccc2[C@@H]1Nc1ncnc2[nH]c(C(F)(F)F)cc12` [EP-0041252]: the EC50 in data set [1] (setting [2]) is 634 nM. Besides, the “Mito-Safety Index” value in the data set on SKOV3 cells turned out to be 39.13.

In the case of `FC(F)(F)c1cc2c(N[C@H]3c4ccccc4OC[C@@H]3OCC3COC3)ncnc2[nH]1` [EP-0043826, N-((3R,4S)-3-(oxetan-3-ylmethoxy)chroman-4-yl)-6-(trifluoromethyl)-7H-pyrrolo[2,3-d]pyrimidin-4-amine], the EC50 in data set [1] (setting [2]) stood at 280 nM. Moreover, the “Mito-Safety Index” value in the data set with SKOV3 cells is 60.4 and 60.3.

Take `FC(F)(F)c1cc2c(N[C@H]3c4ccccc4OC[C@@H]3OCC3CC3)ncnc2[nH]1` [EP-0043810, N-((3R,4S)-3-(cyclopropylmethoxy)chroman-4-yl)-6-(trifluoromethyl)-7H-pyrrolo[2,3-d]pyrimidin-4-amine]: the EC50 in data set [1] (setting [2]) turned out to be 540 nM. The “Mito-Safety Index” value with SKOV3 cells is listed as 46.3.

`CC(C)(F)CO[C@H]1COc2ccccc2[C@@H]1Nc1ncnc2[nH]c(C(F)(F)F)cc12` [EP-0043741, N-[(3R,4S)-3-(2-fluoro-2-methyl-propoxy)chroman-4-yl]-6-(trifluoromethyl)-7H-pyrrolo[2,3-d]pyrimidin-4-amine]: in data set [1] (setting [2]), the EC50 amounted to 510 nM. For the same compound, the “Mito-Safety Index” value with SKOV3 cells turned out to be 49.0.

Regarding `FC(F)(F)c1cc2c(N[C@H]3c4ccccc4OC[C@@H]3OCC3CCOC3)ncnc2[nH]1` (stereo partly drawn) [EP-0043842, N-((3R,4S)-3-((tetrahydrofuran-3-yl)methoxy)chroman-4-yl)-6-(trifluoromethyl)-7H-pyrrolo[2,3-d]pyrimidin-4-amine], the EC50 in data set [1] (setting [2]) is 620 nM. The “Mito-Safety Index” value with SKOV3 cells stood at 38.4.

For the compound `COC(C)(C)CO[C@H]1COc2ccccc2[C@@H]1Nc1ncnc2[nH]c(C3CC3)cc12` [EP-0042538, 6-cyclopropyl-N-[(3R,4S)-3-(2-methoxy-2-methyl-propoxy)chroman-4-yl]-7H-pyrrolo[2,3-d]pyrimidin-4-amine], the EC50 in data set [1] (HeLa, refers to the table, read-out: EC50) is less than 0.03 nM; in data set [1] (setting [2]), 30 nM. The “Mito-Safety Index” value in the data set on SKOV3 cells came out at 51.11.

For the compound `COC[C@]1(C)C[C@@H](Nc2ncnc3[nH]c(C(F)(F)F)cc23)c2ccccc2O1` (single isomer, unassigned) [EP-0043980], in data set [1] (setting [2]), the EC50 came to 100 nM. For the same compound, in the data set with SKOV3 cells, the “Mito-Safety Index” value was determined as 73.0.

`FC(F)(F)c1cc2c(NC3CC4(CCCC4)Oc4ccccc43)ncnc2[nH]1` (stereo not drawn) [EP-0041220]: the EC50 in data set [1] (setting [2]) stood at 608 nM. Besides, the “Mito-Safety Index” value with SKOV3 cells was 41.11.
